T1: flag-TBC1D7 (exogenous TBC1D7 transiently expressed in COS-7 cells) (human, UniProt Q9P0N9 1-293)
T1 construct: The only full-length flag vector described is pCAGGSn3FC, with 3xflag at the C-terminus, so it may be the same construct as m2; The order of the parts is therefore uncertain
T1 sequence: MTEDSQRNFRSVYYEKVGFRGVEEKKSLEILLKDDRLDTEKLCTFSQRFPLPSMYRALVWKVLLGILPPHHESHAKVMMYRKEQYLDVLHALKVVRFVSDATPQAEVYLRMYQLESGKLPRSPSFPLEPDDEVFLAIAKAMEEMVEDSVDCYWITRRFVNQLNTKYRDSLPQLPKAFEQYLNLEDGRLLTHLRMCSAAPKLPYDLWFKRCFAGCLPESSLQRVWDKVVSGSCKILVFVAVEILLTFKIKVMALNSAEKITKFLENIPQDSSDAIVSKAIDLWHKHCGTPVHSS


Tests used:
TSC1 = assay: si-TSC1 treatment of LC319 cells: TSC1 and TBC1D7 transcript and protein levels (semiquantitative RT-PCR, western blot); assay type: cell-based, human; conditions: for TBC1D7 protein level: LC319 cells treated with siRNA against TSC1, western blot
Description: Total RNA was extracted from cultured cells and clinical tissues using Trizol reagent (Life Technologies, Inc.) according to the manufacturer's protocol. Extracted RNAs were treated with DNase I (Nippon Gene) and reversely-transcribed using oligo (dT) primer and SuperScript II reverse transcriptase (Invitrogen). Semiquantitative RT-PCR experiments were carried out with the following synthesized TBC1D7-specific primers or with beta-actin (ACTB)-specific primers as an internal control: TBC1D7, 5′-[…]-3′ (SEQ ID NO.: 5) or 5′-[…]-3′ (SEQ ID NO.:15) and 5′-[…]-3′ (SEQ ID NO.: 6); TSC1, 5′-[…]-3′ (SEQ ID NO.:16) and 5′-[…]-3′ (SEQ ID NO.:17); ACTB, 5′-[…]-3′ (SEQ ID NO.: 7) and 5′-[…]-3′ (SEQ ID NO.: 8). PCR reactions were optimized for the number of cycles to ensure product intensity within the logarithmic phase of amplification.
Cells were lysed in lysis buffer; 50 mM Tris-HCl (pH 8.0), 150 mM NaCl, 0.5% NP-40, 0.5% deoxycholate-Na, 0.1% SDS, plus protease inhibitor (Protease Inhibitor Cocktail Set III; Calbiochem). It was used an ECL western-blotting analysis system (GE Healthcare Bio-sciences), as previously described (Takahashi K. et al. Cancer Res 2006; 66:9408-19).
Small interfering RNA (siRNA) duplexes (100 nM) were transfected into a NSCLC cell line, A549 and LC319, using 24 microL of Lipofectamine 2000 (Invitrogen) following the manufacturer's protocol. The transfected cells were cultured for 7 days, and the number of colonies was counted by Giemsa staining, and viability of cells was evaluated by 3-(4,5-dimethylthiazol-2-yl)-2,5-diphenyltetrazolium bromide (MTT) assay (cell counting kit-8 solution; Dojindo Laboratories), at 7 days after transfection. To confirm suppression of TBC1D7 and TSC1 expression, western blotting using antibodies to TBC1D7 and TSC1 as well as semiquantitative RT-PCR with synthesized primers specific for TBC1D7 and TSC1 were carried out as described above. SiRNA sequences against human TBC1D7 and TSC1 were as follows, si-TBC1D7#3: GAACAGUGCAGAGAAGAUA (SEQ ID NO.:18), si-TBC1D7#4: GAUAAAGUUGUGAGUGGAU (SEQ ID NO.:19), and si-TSC1: CGACACGGCUGAUAACUGA (SEQ ID NO.:20). The present inventors also designed siRNA oligonucleotides against control-1 (LUC: luciferase gene from Photinus pyralis), 5′-CGUACGCGGAAUACUUCGA-3′ (SEQ ID NO.:21) and control-2 (EGFP: enhanced green fluorescent protein (GFP) gene, a mutant of Aequorea victoria GFP), 5′-GAAGCAGCACGACUUCUUC-3′ (SEQ ID NO.:22).

[1] = test system: p-rpS6 (Ser235/236), downstream target of mTORC1; assay: Effect of TSC1 knockdown on mTORC1 pathway in LC319 cells (phosphorylation of rpS6); assay type: cell-based, human; conditions: LC319 cells treated with siRNA against TSC1
[2] = molecular target: T1, flag-TBC1D7 (exogenous TBC1D7 …); assay: co-immunoprecipitation from COS-7 cells expressing flag-TBC1D7 and Myc-RAB17 (FIG. 4B)
Description: FIG. 4 depicts interaction of TBC1D7 with binding proteins. A, Interaction of exogenous TBC1D7 with endogenous 14-3-3 zeta protein in COS-7 cells. Immunoprecipitations were carried out using anti-flag M2 agarose and extracts from COS-7 cells transiently expressing flag-TBC1D7. Immunoprecipitates were subjected to western-blot analysis to detect endogenous 14-3-3. B, Interaction of exogenous TBC1D7 with exogenous RAB 17 protein in COS-7 cells. Immunoprecipitations were carried out using anti-flag M2 agarose and extracts from COS-7 cells transiently expressing flag-TBC1D7 and/or Myc-RAB17. Immunoprecipitates were subjected to western-blot analysis to detect exogenous RAB 17. IB, immunoblotting; IP, immunoprecipitation. C, Expression of TSC1 and TBC1D7 in lung cancer cells. […] Left panels, The levels of TSC1 and TBC1D7 transcripts and proteins, detected by semiquantitative RT-PCR analysis and western-blot analysis in LC319 cells transfected with si-TSC1. Right panels, The levels of TSC1 and TBC1D7 transcripts and proteins, detected by semiquantitative RT-PCR analysis and western-blot analysis in LC319 cells transfected with TSC1 expression vector. F, The levels of endogenous TSC1 and TBC1D7 proteins, detected by western blot analysis in LC319 cells that were initially transfected with si-TSC1, and were subsequently transfected with TSC1 expression vector 24 hours after the siRNA transfection. […]

Row | binding result [2] | Molecule | transcription level of TBC1D7 (TSC1; LC319 cells treated with si-TSC1, semiquantitative RT-PCR) | TBC1D7 protein level (TSC1) | TBC1D7 protein level (TSC1; listed as siRNA against TSC1) | expression of the endogenous TSC1 (TSC1; LC319 cells, in comparison to control siRNA (si-EGFP)) | levels of p-rpS6 (Ser235/236) protein [1]
1 | – | si-TSC1: siRNA sequence against human TSC1: CGACACGGCUGAUAACUGA (SEQ ID NO: 20) (listed as RNA, chemistry not given here) | unchanged | decreased | Reduced levels | suppressed | not changed
2 | binds | Myc-RAB17 (pcDNA3.1 Myc-His RAB17), exogenous RAB17 expressed in COS-7 cells (other, not shown: Myc-His tag of the pcDNA3.1 Myc-His vector) MAQAHRTPQPRAAPSQPRVFKLVLLGSGSVGKSSLALRYVKNDFKSILPTVGCAFFTKVVDVGATSLKLEIWDTAGQEKYHSVCHLYFRGANAALLVYDITRKDSFLKAQQWLKDLEEELHPGEVLVMLVGNKTDLSQEREVTFQEGKEFADSQKLLFMETSAKLNHQVSEVFNTVAQELLQRSDEEGQALRGDAAVALNKGPARQAKCCAH | – | – | – | – | –

Reference: US20120010266A1, “TBC1D7 AS TUMOR MARKER AND THERAPEUTIC TARGET FOR CANCER” (Oncotherapy Science Inc.,, priority 2008, published 2012)
